Experiments:
[1] = biological target: T1, Tumour suppressor p53/oncoprotein Mdm2 (Homo sapiens, UniProt P04637+Q00987); experiment: Inhibition of p53 interaction to MDM2 (unknown origin); assay type: protein assay
Target sequence in this assay (P04637 whole entry): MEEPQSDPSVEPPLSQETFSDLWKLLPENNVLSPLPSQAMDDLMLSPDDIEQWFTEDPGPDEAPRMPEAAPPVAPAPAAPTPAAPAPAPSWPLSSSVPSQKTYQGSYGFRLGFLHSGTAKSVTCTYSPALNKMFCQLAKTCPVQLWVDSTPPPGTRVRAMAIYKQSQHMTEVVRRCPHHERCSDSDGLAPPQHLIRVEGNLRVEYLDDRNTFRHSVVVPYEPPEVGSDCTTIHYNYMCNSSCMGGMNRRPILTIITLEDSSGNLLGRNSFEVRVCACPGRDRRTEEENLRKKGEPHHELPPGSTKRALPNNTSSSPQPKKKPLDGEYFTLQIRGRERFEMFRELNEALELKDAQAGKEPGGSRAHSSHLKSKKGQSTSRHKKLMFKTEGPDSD
Target sequence in this assay (Q00987 whole entry): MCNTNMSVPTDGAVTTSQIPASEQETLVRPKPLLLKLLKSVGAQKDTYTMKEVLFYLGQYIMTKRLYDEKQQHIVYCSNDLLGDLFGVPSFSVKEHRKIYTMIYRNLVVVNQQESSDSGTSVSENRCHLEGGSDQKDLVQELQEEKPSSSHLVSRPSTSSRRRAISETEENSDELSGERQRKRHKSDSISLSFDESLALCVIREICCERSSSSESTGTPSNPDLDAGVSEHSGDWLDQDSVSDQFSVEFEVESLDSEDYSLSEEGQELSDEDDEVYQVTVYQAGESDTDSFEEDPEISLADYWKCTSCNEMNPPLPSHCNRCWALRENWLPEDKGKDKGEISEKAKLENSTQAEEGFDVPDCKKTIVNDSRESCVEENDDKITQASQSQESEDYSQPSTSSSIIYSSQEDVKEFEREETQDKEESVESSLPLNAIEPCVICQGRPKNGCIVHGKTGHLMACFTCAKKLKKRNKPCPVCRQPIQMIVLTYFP

[2] = biological target: T1, Tumour suppressor p53/oncoprotein Mdm2; experiment: Inhibition of p53 interaction to MDM2 (unknown origin) by HTRF assay in presence of 0.02% bovine serum albumin; assay type: protein assay
Target sequence in this assay (P04637 whole entry): as the sequence (P04637 whole entry) above
Target sequence in this assay (Q00987 whole entry): as the sequence (Q00987 whole entry) above

[3] = biological target: T1, Tumour suppressor p53/oncoprotein Mdm2; experiment: Inhibition of p53 interaction to GST-tagged MDM2 (unknown origin); assay type: protein assay
Target sequence in this assay (P04637 whole entry): as the sequence (P04637 whole entry) above
Target sequence in this assay (Q00987 whole entry): as the sequence (Q00987 whole entry) above

[4] = biological target: T1, Tumour suppressor p53/oncoprotein Mdm2; experiment: Inhibition of p53 interaction to MDM2 (unknown origin) by HTS assay; assay type: protein assay
Target sequence in this assay (P04637 whole entry): as the sequence (P04637 whole entry) above
Target sequence in this assay (Q00987 whole entry): as the sequence (Q00987 whole entry) above

[5] = test system: A2780; experiment: Antiproliferative activity against human A2780 cells; assay type: functional, cell-based
[6] = biological target: T1, Tumour suppressor p53/oncoprotein Mdm2; experiment: Inhibition of His-tagged p53 interaction to GST-tagged MDM2 (unknown origin); assay type: protein assay
Target sequence in this assay (P04637 whole entry): as the sequence (P04637 whole entry) above
Target sequence in this assay (Q00987 whole entry): as the sequence (Q00987 whole entry) above

[7] = Antiproliferative activity against human DLD1 cells; assay type: functional, cell-based; conditions: DLD-1
[8] = test system: NCI-H460; experiment: Antiproliferative activity against human NCI-H460 cells; assay type: functional, cell-based
[9] = biological target: Tumour suppressor protein p53/Mdm4 (Homo sapiens, UniProt O15151); experiment: Inhibition of p53 interaction to MDMX (unknown origin) by fluorescence polarization assay; assay type: protein assay
Sequence of Tumour suppressor protein p53/Mdm4 (P04637 whole entry): as the sequence (P04637 whole entry) above
Sequence of Tumour suppressor protein p53/Mdm4 (O15151 whole entry): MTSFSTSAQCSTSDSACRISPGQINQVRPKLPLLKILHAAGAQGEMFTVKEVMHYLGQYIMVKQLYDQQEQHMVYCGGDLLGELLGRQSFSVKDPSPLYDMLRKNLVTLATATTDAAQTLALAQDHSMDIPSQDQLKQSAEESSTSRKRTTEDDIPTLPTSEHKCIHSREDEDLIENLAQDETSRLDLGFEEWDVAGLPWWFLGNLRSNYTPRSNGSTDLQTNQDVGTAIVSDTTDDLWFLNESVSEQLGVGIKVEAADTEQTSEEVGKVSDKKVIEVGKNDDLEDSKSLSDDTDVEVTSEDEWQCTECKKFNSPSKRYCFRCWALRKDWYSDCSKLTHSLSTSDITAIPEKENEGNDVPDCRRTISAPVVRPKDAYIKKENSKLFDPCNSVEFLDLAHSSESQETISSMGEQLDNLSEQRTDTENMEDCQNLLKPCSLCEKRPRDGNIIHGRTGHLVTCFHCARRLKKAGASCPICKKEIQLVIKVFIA

[10] = biological target: T1, Tumour suppressor p53/oncoprotein Mdm2; experiment: Inhibition of p53 interaction to MDM2 (unknown origin) by fluorescence polarization assay; assay type: protein assay
Target sequence in this assay (P04637 whole entry): as the sequence (P04637 whole entry) above
Target sequence in this assay (Q00987 whole entry): as the sequence (Q00987 whole entry) above

[11] = biological target: T1, Tumour suppressor p53/oncoprotein Mdm2; experiment: Inhibition of p53 interaction to MDM2 (unknown origin) at 1.4 uM by HTRF assay; assay type: protein assay
Target sequence in this assay (P04637 whole entry, looked up): as the sequence (P04637 whole entry) above
Target sequence in this assay (Q00987 whole entry, looked up): as the sequence (Q00987 whole entry) above

## CC(C)(C)c1ncc(C2=N[C@@](C)(c3ccc(Cl)cc3)[C@@](C)(c3ccc(Cl)cc3)N2C(=O)N2CCN(CCOCCO)CC2)cn1
[1]
  IC50: 31 nM

## CC(C)(C)C[C@@H]1N[C@@H](C(=O)NCC[C@H](O)CO)[C@@H](c2cc(F)cc(Cl)c2)[C@@]1(C#N)c1ccc(Cl)cc1F
[2]
  IC50: 165 nM

## Cc1cccc([C@H]2N(CC(=O)O)C(=O)C[C@@H](c3cccc(Cl)c3)[C@]23C(=O)Nc2cc(Cl)ccc23)c1 (racemic)
[1]
  IC50: 370 nM

## CC(=O)N1CCC(Oc2ccc(I)cc2[C@@H]2NC(=O)C[C@H](c3cccc(Cl)c3)[C@@]23C(=O)Nc2cc(Cl)ccc23)CC1
[3]
  IC50: 34 nM

## C=C(CC)[C@H]1N2CC(=O)N(CCCN(C)C)N=C2C[C@@H](c2cccc(Cl)c2)[C@]12C(=O)Nc1cc(Cl)ccc12
[1]
  IC50: 100 nM

## Clc1ccc2c(-c3c(-c4ccc5c(c4)OCO5)ncn3CC3CC3)c[nH]c2c1
[4]
  Ki: 1000 nM

## COc1cccc([C@]2(Cc3cccc(Cl)c3)C(=O)Nc3cc(Cl)ccc32)c1
[1]
  IC50: 280 nM

## Cc1ccc(F)cc1[C@@H]1NC(=O)C[C@H](c2cc(Cl)cnc2CC(C)(C)C(=O)O)[C@@]12C(=O)Nc1cc(Cl)ccc12
[2]
  IC50: 145 nM

## Fc1cc(Nc2ccncc2)cc(F)c1NCCc1c[nH]c2ccccc12
[5]
  IC50: > 10000 nM

## Cc1ccc(CN2C(=O)c3ccccc3C2(O[C@H]2C=C[C@@H](O)C2)c2ccc(Cl)cc2)cc1 (some centres not stated)
[1]
  IC50: 1400 nM

## Cc1ccc(F)cc1[C@@H]1NC(=O)C[C@H](c2ccccc2OC(C)(C)C(=O)N2CCC(F)(F)CC2)[C@@]12C(=O)Nc1cc(Cl)ccc12
[1]
  IC50: 54 nM

## COc1cccc(C2(Cc3cccc(Cl)c3)C(=O)Nc3cc(Cl)ccc32)c1 (configuration not stated)
[1]
  IC50: 460 nM

## OC1CCc2c(Nc3ccc4c(c3)OCCN4CCc3c[nH]c4ccccc34)ccnc21 (configuration not stated)
[5]
  IC50: 427 nM

## CC(C)(C)C[C@@H]1N[C@@H](C(=O)NCCCCO)[C@@H](c2cccc(Cl)c2)[C@@]1(C#N)c1ccc(Cl)cc1
[2]
  IC50: 309 nM

## CCOC(=O)N1CCN(C(=O)[C@@]2(Sc3ccccc3)CC(=O)N(Cc3ccc(C#N)cc3)[C@@H]2c2c[nH]c3cc(Cl)ccc23)CC1
[1]
  IC50: 1000 nM

## COc1cc(C(=O)N(C)[C@@H](Cc2c[nH]c3ccccc23)C(=O)N2CCN(c3ccc([N+](=O)[O-])cc3)CC2)c([N+](=O)[O-])cc1OC
[1]
  IC50: 30 nM

## CC(C)C1=C(C(=O)N2CCC[C@H]2C(=O)N(C)C)SC2=N[C@@](C)(c3ccc(Cl)nc3)[C@@H](c3ccc(Cl)cc3)N21
[6]
  IC50: 14 nM
[7]
  IC50: 40700 nM
[8]
  IC50: 1380 nM

## Cc1ccc(F)cc1[C@H]1NC(=O)C=C(c2cccc(Cl)c2)[C@]12C(=O)Nc1cc(Cl)ccc12
[2]
  IC50: 66 nM

## CC(C)(C)C[C@H]1N[C@@H](C(=O)NCCN2CCOCC2)[C@H](c2cccc(Cl)c2F)[C@@]12C(=O)Nc1cc(Cl)ccc12
[9]
  Ki: 55000 nM

## CC(C)C1=C(C(=O)N2C[C@H](F)C[C@H]2C(=O)N2CCNC3(CC3)C2)SC2=N[C@@](C)(c3ccc(Cl)nc3)[C@@H](c3ccc(Cl)c(F)c3)N21
[1]
  IC50: 2.8 nM

## COC(=O)[C@]1(c2ccc(Cl)cc2)N=CN(CC2CC2)[C@H]1c1ccc(Cl)cc1
[4]
  Ki: 3000 nM

## COC(=O)c1cccc(S(=O)(=O)N2c3ccc(C(=O)N4CCN(C)CC4)c(=O)n3[C@@H](c3ccc(Cl)cc3)[C@H]2c2ccc(Cl)cc2)c1
[1]
  IC50: 460 nM

## CCOC(=O)[C@@]1(c2ccc(Cl)cc2)N=C(c2ccc(OC)cc2OC(C)C)N(C(=O)N2CCN(C(C)=O)CC2)[C@@H]1c1ccc(Cl)cc1
[1]
  IC50: 70 nM

## CC(C)Cc1cc(CCC(=O)O)ccc1-c1ccc(-c2ccc(OCC(=O)O)c(Cc3ccccc3)c2)c(Cc2ccccc2)c1
[10]
  Ki: 970 nM

## O=C1C[C@H](c2cccc(Cl)c2)[C@@]2(C(=O)Nc3cc(Cl)ccc32)[C@H](c2cccc(Cl)c2)C1
[11]
  inhibition: 94.4%

From ChEMBL document CHEMBL3217437, “The p53-MDM2/MDMX axis - A chemotype perspective” (Medchemcomm, 2011)
